This passage reports IC50 results from patent publication US8901118B2, “Compounds and methods for kinase modulation, and indications therefor” (Plexxikon Inc., priority 2010, dated 2014).

One assay has as its system SKNSH cells. Kind of assay: SKNSH (human neuroblastoma) cell proliferation assay (ATPlite). Particulars: SK-N-SH, read-out: Inhibition of Cell Proliferation IC50, SKNSH. It counts as cell-based. On the procedure:
Compounds are assessed in a variety of cell based assays. For example BaF3 cells engineered with any of BCR-FMS, BCR-KIT, BCR-FLT3, BCR-NTRK1, BCR-NTRK2, and BCR-NTRK3, are used in cell proliferation assays to assess inhibitory activity of Fms, Kit, Flt-3, TrkA, TrkB, and TrkC, respectively. An MV-4-11 (leukemia) cell proliferation assay is used to assess inhibitory activity in Flt-3, and SKNSH (human neuroblastoma) cell proliferation assay is used to assess efficacy of Fms/Trk inhibitors. Additional cells may be assayed similarly to assess the efficacy of Fms/Trk inhibitors, such as MiaPaCa (human pancreatic cancer) and Capan-1 (human pancreatic carcinoma) cells. Reagent and assay conditions are as follows: • BaF3 cells: • Maintained in RPMI containing 10% FBS, 1% PenStrep, 1% NEAA, and 1% L-Glutamine, supplemented with 1 mg/mL G418 and 5% WEHI-CM (or recombinant murine IL-3). • Confluent cells are split 1:50 to 1:100 every 3-4 days. • MV-4-11 cells: • Maintained in Iscove's Modified Dulbecco's Medium containing 10% FBS. • Confluent cells are split 1:4 every 3-4 days. • SKNSH cells: RPMI containing 10% FBS. On day 1, cells are counted, then centrifuged in a conical tube for 5 minutes at 1000 rpm. The supernatant is removed and cells are re-suspended as follows: • BaF3: resuspend in growth media +1 mg/mL G418 (without WEHFIL-3) to 2×10^5 cells/mL. • MV-4-11: resuspend in growth media to 5×10^5 cells/mL. • SKNSH: resuspend in growth media to 2×10^4 cells/mL. The cells are plated (50 μL, 150 μL for SKNSH cells) in each well of a 96-well dish (Corning 3610) and incubated at 37° C. in 5% CO2 overnight, cells plated to a final concentration of cells as follows: • BaF3: 10,000 cells per well. • MV-4-11: 25,000 cells per well. • SKNSH: 3,000 cells per well. On day 2, compound at a maximum concentration of 5 mM is serially diluted 1:3 for a total of 8 point titration with DMSO as a control. A 1 μL aliquot of each dilution point is added to 249 μL growth media and 50 μL is added to a well containing cells, providing 10 μM compound for the maximum concentration point. The cells are incubated for 3 days at 37° C. in 5% CO2. For SKNSH cells, a 0.75 μL aliquot of appropriate dilution in DMSO is added to 150 μL of cells. On day 5, ATPlite 1 step Luminescence Assay System (Perkin Elmer #6016739) is brought to room temperature along with the cell cultures. ATPlite is added to each well as follows: • BaF3: 25 μL per well. • MV-4-11: 40 μL per well. • SKNSH: 20 μL per well. The cells are incubated at room temperature for 10 minutes, then luminescence is read on Safire reader. The measured luminescence correlates directly with cell number, such that the reading as a function of compound concentration is used to determine the IC50 value.
It is understood that the results of these assays may vary as assay conditions are varied. Inhibition levels determined under the conditions described herein represent a relative activity for the compounds tested under the specific conditions employed. The cell based assays are likely to show variability due to the complexity of the system and the sensitivity thereof to any changes in the assay conditions. […] Results for compounds that are tested and show substantially no inhibition below the highest tested concentration are represented as “-” in the tables below. In some instances, the compounds were not tested in all of the assays, or assay results were not valid, as indicated by NA in the tables below.
For orientation: In ATP-based viability assays light output follows the ATP content of the culture.

The target in a further assay is T1, CYP1A2 (Homo sapiens, UniProt P05177).
T1 sequence (P05177 1-516): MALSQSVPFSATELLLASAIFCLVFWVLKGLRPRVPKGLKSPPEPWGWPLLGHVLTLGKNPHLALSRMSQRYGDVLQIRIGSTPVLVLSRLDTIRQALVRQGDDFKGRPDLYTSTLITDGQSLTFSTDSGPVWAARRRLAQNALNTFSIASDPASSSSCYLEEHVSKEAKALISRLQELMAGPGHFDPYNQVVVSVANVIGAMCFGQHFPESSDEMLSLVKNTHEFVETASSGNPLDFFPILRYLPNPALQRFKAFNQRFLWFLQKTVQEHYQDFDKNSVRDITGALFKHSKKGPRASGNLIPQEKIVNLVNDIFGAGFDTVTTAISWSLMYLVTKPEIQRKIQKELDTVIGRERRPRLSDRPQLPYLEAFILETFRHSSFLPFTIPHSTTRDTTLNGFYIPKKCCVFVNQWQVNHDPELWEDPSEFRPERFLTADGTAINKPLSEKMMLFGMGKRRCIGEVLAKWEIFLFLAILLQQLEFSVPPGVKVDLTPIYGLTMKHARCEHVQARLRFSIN
Kind of assay: CYP1A2 inhibition (fluorescent substrate CEC). In kind it is in vitro ADME. Particulars: read-out: Cyp IC50 1A2. Here is the method: CYP (Cytochrome P450) enzymes are the major drug metabolizing enzymes present in the liver. The inhibition of CYP enzyme activity (IC50) for each of CYP1A2, CYP2C19, CYP2C9, CYP2D6, CYP3A4(BFC) and CYP3A4(BQ) is determined for compounds, where inhibition of metabolism of a known substrate leads to a decrease in the fluorescence of the metabolized product. The fluorescence of the product is monitored as a function of compound concentration. Compounds are dissolved in DMSO to a concentration of 100 mM. These are diluted 1 μL into 82 μL of acetonitrile. An 11 μL aliquot of this solution is then added to 204 μL of cofactor mix (1.3% NADPH Regeneration system Solution A, 1.04% NADPH Regeneration system Solution B from BD Biosciences, 5% acetonitrile and 0.05% DMSO). These are then serially diluted 1:1 (160 μL to 160 μL co-factor mix) for a total of 10 points. A 10 μL aliquot of this final mixture is dispensed into 384 well assay plates and incubated for 10 minutes at 37° C. […] Assay plates are incubated at 37° C. (CYP1A2-15 min; CYP2C9-45 min; CYP2C19, 2D6 and 3A4-30 min) and read in a Tecan Safire 2 plate reader (CYP1A2, 2C19 and 3A4 409 ex/460 em; CYP2C9 and 2D6 409 ex/530 em). The signal versus compound concentration is used to determine the IC50. The enzymes and substrates for this assay are obtained from BD Biosciences.

Molecules are shown by their SMILES.

Regarding `O=C(c1ccc(NC2CCC(F)(F)CC2)nc1Cl)c1c[nH]c2ncnc(NC3CC3)c12` [Compound P-4059, [2-chloro-6-[(4,4-difluorocyclohexyl)amino]-3-pyridyl]-[4-(cyclopropylamino)-7H-pyrrolo[2,3-d]pyrimidin-5-yl]methanone], the IC50 in the assay with SKNSH cells was under 1 µM; on CYP1A2 it was over 10 µM.

In the case of `CCNc1ncnc2[nH]cc(C(=O)c3ccc(Nc4ccc(C5CC5)nc4)nc3F)c12` [Compound P-4060, [6-[(6-cyclopropyl-3-pyridyl)amino]-2-fluoro-3-pyridyl]-[4-(ethylamino)-7H-pyrrolo[2,3-d]pyrimidin-5-yl]methanone], the IC50 in the assay on SKNSH cells is under 0.1 µM; on CYP1A2 it was over 10 µM.

For the molecule `O=C(c1ccc(NC2CCC(F)(F)CC2)nc1F)c1c[nH]c2ncnc(NC3CC3)c12` [Compound P-4062, [4-(cyclopropylamino)-7H-pyrrolo[2,3-d]pyrimidin-5-yl]-[6-[(4,4-difluorocyclohexyl)amino]-2-fluoro-3-pyridyl]methanone], the IC50 in the assay on SKNSH cells was under 1 µM; on CYP1A2 it was over 10 µM.

Consider `CNc1ncnc2[nH]cc(C(=O)c3ccc(NC4CCC(F)(F)CC4)nc3F)c12` [Compound P-4063, [6-[(4,4-difluorocyclohexyl)amino]-2-fluoro-3-pyridyl]-[4-(methylamino)-7H-pyrrolo[2,3-d]pyrimidin-5-yl]methanone], for which the figures for the IC50 with SKNSH cells and on CYP1A2 were under 1 µM and over 10 µM, respectively.

With `CCc1ccc(Nc2ccc(C(=O)c3c[nH]c4ncnc(N)c34)c(F)n2)cn1` [Compound P-4065, (4-amino-7H-pyrrolo[2,3-d]pyrimidin-5-yl)-[6-[(6-ethyl-3-pyridyl)amino]-2-fluoro-3-pyridyl]methanone], the IC50 in the assay on SKNSH cells is under 1 µM; at CYP1A2, over 10 µM.

As to `COc1ccc(Nc2ccc(C(=O)c3c[nH]c4ncnc(NCC(F)(F)F)c34)c(F)n2)cn1` [Compound P-4084, [2-fluoro-6-[(6-methoxy-3-pyridyl)amino]-3-pyridyl]-[4-(2,2,2-trifluoroethylamino)-7H-pyrrolo[2,3-d]pyrimidin-5-yl]methanone], the IC50 was under 10 µM in the assay with SKNSH cells and over 10 µM at CYP1A2.

Take `CNc1ncnc2[nH]cc(C(=O)c3ccc(NC4CCC(F)(F)CC4)nc3)c12` [Compound P-4089, [6-[(4,4-difluorocyclohexyl)amino]-3-pyridyl]-[4-(methylamino)-7H-pyrrolo[2,3-d]pyrimidin-5-yl]methanone]: the results for the IC50 in the assay on SKNSH cells and at CYP1A2 were under 10 µM and over 10 µM, respectively.

Consider `O=C(c1ccc(Nc2ccc(C3CC3)nc2)nc1F)c1c[nH]c2ncnc(NCC(F)(F)F)c12` [Compound P-4090, [6-[(6-cyclopropyl-3-pyridyl)amino]-2-fluoro-3-pyridyl]-[4-(2,2,2-trifluoroethylamino)-7H-pyrrolo[2,3-d]pyrimidin-5-yl]methanone], for which the IC50 is under 1 µM in the assay on SKNSH cells and over 10 µM at CYP1A2.

As for `O=C(c1ccc(Nc2ccc(C(F)(F)F)nc2)nc1F)c1c[nH]c2ncnc(NC3CC3)c12` [Compound P-4091, [4-(cyclopropylamino)-7H-pyrrolo[2,3-d]pyrimidin-5-yl]-[2-fluoro-6-[[6-(trifluoromethyl)-3-pyridyl]amino]-3-pyridyl]methanone], the IC50 is under 0.1 µM in the assay on SKNSH cells and over 10 µM on CYP1A2.

For `CNc1ncnc2[nH]cc(C(=O)c3ccc(Nc4ccc(C(F)(F)F)nc4)nc3F)c12` [Compound P-4092, [2-fluoro-6-[[6-(trifluoromethyl)-3-pyridyl]amino]-3-pyridyl]-[4-(methylamino)-7H-pyrrolo[2,3-d]pyrimidin-5-yl]methanone], the IC50 is under 1 µM in the assay with SKNSH cells and under 5 µM on CYP1A2.

In the case of `CNc1ncnc2[nH]cc(C(=O)c3ccc(Nc4ccc(C5CC5)nc4)nc3F)c12` [Compound P-4094, [6-[(6-cyclopropyl-3-pyridyl)amino]-2-fluoro-3-pyridyl]-[4-(methylamino)-7H-pyrrolo[2,3-d]pyrimidin-5-yl]methanone], the values for the IC50 in the assay on SKNSH cells and on CYP1A2 were under 1 µM and under 5 µM, respectively.

As for `CCc1ccc(Nc2ccc(C(=O)c3c[nH]c4ncnc(NC5CCC5)c34)c(F)n2)cn1` [Compound P-4095, [4-(cyclobutylamino)-7H-pyrrolo[2,3-d]pyrimidin-5-yl]-[6-[(6-ethyl-3-pyridyl)amino]-2-fluoro-3-pyridyl]methanone], the results for the IC50 with SKNSH cells and on CYP1A2 were under 1 µM and over 10 µM, respectively.

As to `CCc1ccc(Nc2ccc(C(=O)c3c[nH]c4ncnc(NC5CCC(F)(F)CC5)c34)c(F)n2)cn1` [Compound P-4096, [4-[(4,4-difluorocyclohexyl)amino]-7H-pyrrolo[2,3-d]pyrimidin-5-yl]-[6-[(6-ethyl-3-pyridyl)amino]-2-fluoro-3-pyridyl]methanone], the values for the IC50 in the assay on SKNSH cells and on CYP1A2 were under 10 µM and under 5 µM, respectively.

Regarding `CCc1ccc(Nc2ccc(C(=O)c3c[nH]c4ncnc(N[C@@H](C)c5ccc(F)cc5)c34)c(F)n2)cn1` [Compound P-4097, [6-[(6-ethyl-3-pyridyl)amino]-2-fluoro-3-pyridyl]-[4-[[(1S)-1-(4-fluorophenyl)ethyl]amino]-7H-pyrrolo[2,3-d]pyrimidin-5-yl]methanone], the IC50 is under 10 µM in the assay on SKNSH cells and under 5 µM at CYP1A2.

Take `CCc1ccc(Nc2ccc(C(=O)c3c[nH]c4ncnc(NCCCOC)c34)c(F)n2)cn1` [Compound P-4098, [6-[(6-ethyl-3-pyridyl)amino]-2-fluoro-3-pyridyl]-[4-(3-methoxypropylamino)-7H-pyrrolo[2,3-d]pyrimidin-5-yl]methanone]: the IC50 in the assay on SKNSH cells was under 10 µM; on CYP1A2 it was under 5 µM.
